Source: PubChem BioAssay (NCI)
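Five compound concentrations were applied to cells in 96-well plates for 48 hours; endpoints were derived by simple linear interpolation of the resulting dose-response curve. Abbreviation: GI50, concentration required for 50% inhibition of growth. TGI marks complete inhibition of growth.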

How the values were obtained:
Test in all cases: NCI-60 cell line screen, 48 h
A498 renal = tested on: A498 renal
BT-549 breast = tested on: BT-549 breast
HS 578T breast = tested on: HS 578T breast
MCF7 breast = tested on: MCF7 breast
MOLT-4 leukemia = tested on: MOLT-4 leukemia
SNB-75 CNS = tested on: SNB-75 CNS
U251 CNS = tested on: U251 CNS
UO-31 renal = tested on: UO-31 renal

Row | SMILES | GI50 (A498 renal) | TGI (A498 renal) | GI50 (BT-549 breast) | TGI (BT-549 breast) | GI50 (HS 578T breast) | TGI (HS 578T breast) | GI50 (MCF7 breast) | TGI (MCF7 breast) | TGI (MOLT-4 leukemia) | GI50 (SNB-75 CNS) | TGI (SNB-75 CNS) | GI50 (U251 CNS) | TGI (U251 CNS) | GI50 (UO-31 renal) | TGI (UO-31 renal) | GI50 (MOLT-4 leukemia)
1 | COc1cc2c(cc1OCCCCCOc1cc(-c3ccc(F)cc3)nc(C)n1)N=C[C@@H]1CCCN1C2=O | > 100 µM | > 100 µM | > 32.8 µM | > 61.1 µM | > 47.5 µM | > 81.2 µM | > 23.6 µM | > 48.8 µM | > 45 µM | > 100 µM | > 100 µM | > 34.8 µM | > 86.7 µM | > 28.3 µM | > 59 µM | –
2 | Cc1cccc2c3c(sc12)C(c1ccc(Cl)cc1)C(C#N)=C(/N=C/c1ccc(Cl)cc1)O3 (stereo unspecified) | 0.0748 µM | 0.953 µM | 1.38 µM | > 57.9 µM | 0.258 µM | 2.64 µM | 0.301 µM | > 100 µM | > 100 µM | 0.186 µM | 0.748 µM | 0.443 µM | 21.3 µM | 0.653 µM | > 100 µM | 0.517 µM
3 | Cc1cccc(C(C)O)n1 (stereo unspecified) | – | > 100 µM | – | > 100 µM | – | > 100 µM | – | > 100 µM | > 100 µM | – | > 100 µM | – | > 100 µM | – | > 100 µM | –
4 | COc1ccc2c(c1)[nH]c(=O)c1c3cccnc3cn21 | 0.0335 µM | 4.53 µM | 0.356 µM | 25.3 µM | 0.0384 µM | > 48.8 µM | 0.0965 µM | 14.1 µM | > 100 µM | 0.031 µM | 57.3 µM | 0.041 µM | 12.2 µM | 0.0797 µM | 14.6 µM | 0.0675 µM
5 | FC(F)(F)c1ccc2c(c1)N(CCCN1CCN(C3CC3)CC1)c1ccccc1S2 | 11 µM | 23.3 µM | 16.7 µM | 35.4 µM | 10.3 µM | 27.1 µM | 9.53 µM | 22.1 µM | 23.7 µM | 13.5 µM | 28.1 µM | 4.94 µM | 18 µM | 8.13 µM | 22.9 µM | 6.13 µM
6 | C[C@]12CC[C@H]3[C@@H](CCC4=CC(=O)CC[C@@H]43)[C@@H]1CC[C@@H]2OC1(O)C(=O)c2ccccc2C1=O | – | > 100 µM | – | > 100 µM | – | > 100 µM | – | > 100 µM | 92.8 µM | – | > 100 µM | – | > 100 µM | – | 78.3 µM | –
7 | Clc1nc(Cl)c2ncn(C/C=C\Cn3cnc4c(Cl)nc(Cl)nc43)c2n1 | 1.51 µM | 3.23 µM | 2.03 µM | 5.01 µM | 3.01 µM | 6.12 µM | 1.39 µM | 3.21 µM | 4.11 µM | 2.73 µM | 7.91 µM | 3.5 µM | 10.6 µM | 3.38 µM | 10.3 µM | 2.05 µM
8 | c1ccc(-c2nc(Nc3ccc(-c4nc5ccccc5[nH]4)cc3)nc(N3CCOCC3)n2)cc1 | 1.09 µM | 2.62 µM | 1.98 µM | 3.9 µM | 1.89 µM | 6.04 µM | 0.877 µM | 2.85 µM | 3.53 µM | 1.63 µM | 3.15 µM | 0.535 µM | 1.76 µM | 1.32 µM | 2.91 µM | 1.33 µM
